The text below walks through data of patent US7687079B2, “Methods of treating ileus” (priority 2002, dated 2010).

The structures appear in SMILES notation.

For one assay, the system named is TNFα mRNA. The assay is described as follows: TNFα mRNA expression in muscularis externae of intestinal grafts (real time RT-PCR). Format: in vivo, rat. The settings on record: SITx recipients treated with CO, 4 hours after reperfusion. The protocol:
(§1) The effects of inhalation of CO on transplant-induced pro-inflammatory and anti-inflammatory gene expression was assessed in muscularis extracts by RT-PCR. Muscularis extemae was collected from normal intestine and transplanted grafts 4 hours postoperatively and snap frozen in liquid nitrogen. This time point falls within the range of maximum inflammatory mediator expression that occurs between 3 and 6 hours following abdominal incision. Total RNA extraction was performed using the guanidium-thiocyanate phenol-chloroform extraction method as described previously (Eskandari et al., Am. J. Clin. Pathol. 75(3):367-370 (1997)). RNA pellets were resuspended in RNA-secure resuspension solution (Ambion Inc., Austin, Tex.), followed by removal of potentially contaminating DNA by treatment with DNase I (DNA-Free Kit, Ambion Inc., Austin, Tex.). Equal aliquots (5 μg) of total RNA from each sample were quantified by spectrophotometry (wavelength […]) and aliquoted at a concentration of 40 ng/μl. Peak mRNA expression was quantified in duplicate by SYBR Green two-step, real-time RT-PCR. […] Real-time PCR data were plotted as the ΔRn, fluorescence signal versus the cycle number. […] Quantification of mRNA expression was normalized to GAPDH and calculated relative to control using the comparative CT method (Schmittgen et al., J. Biochem. Biophys. Methods 46(1-2):69-8 (2000)). […]
For orientation: In qPCR the cycle at which signal appears reflects the starting amount.

For the next assay, the system named is ICAM-1 mRNA. The assay is described as follows: ICAM-1 mRNA expression in muscularis externae of intestinal grafts (real time RT-PCR). The settings on record: SITx recipients treated with CO, 4 hours after reperfusion. Format: in vivo, rat. The protocol:
as §1

Assay [1] deals with mice with ileus induced by manipulation of the small intestine. The assay is described as follows: Example 3 intestinal transit, geometric center after IM. Particulars: IM+CO mice (250 and 500 ppm), 24 hours. Format: in vivo, mouse. The protocol: Ileus was induced in mice by gentle manipulation of the small intestine. An incision was made to expose the abdominal cavity of the mouse, and bowel manipulation was performed by gentle poking and prodding of the small intestine (see, e.g., Schwarz et al., Gastroenterology 121(6):1354-1357 (2001)). The incision was subsequently closed, and analyses were performed 24 hours later. Mice were exposed to CO by inhalation (250 and 500 ppm) for 1 hour immediately prior to intestinal manipulation and during the entire 24-hour recovery period. Intestinal contractility was assessed in vitro by measuring circular muscle strip contractions in response to bethanechol (0.3-300 μM) and in vivo by determining intestinal transit from the distribution of orally-fed, fluorescein-labeled dextran and calculating geometric center as described in Example 1 above. HO-1 and IL-10 mRNA expression were determined by SYBR green real time RT-PCR from extracts of muscularis extemae, as described in Example 1 above. Release of nitric oxide (NO), a potent inhibitor of smooth muscle contractility, was estimated by measuring serum total nitrite, also described in Example 1 above.

The subject of assay [2] is pigs with ileus induced by mild manipulation of the small intestine. The assay is described as follows: intestinal transit of steel ball bearings after IM in pig model. Format: in vivo. The settings on record: CO 250 ppm for 3 hr prior to IM. The protocol: Similar experiments were performed in a pig model. Ileus was induced by mild manipulation of the small intestine (IM). Pigs were exposed to CO (250 ppm) or air (controls) for a period of 3 hr prior to IM. Gastrointestinal function was assessed in vivo by observing intestinal transit of steel ball bearings placed within the small intestine.

In the case of `[C-]#[O+]` [CO, carbon monoxide], the TNFα expression result in the assay with TNFα mRNA is “unchanged”. In addition, the ICAM-1 expression entry in the assay with ICAM-1 mRNA was “unchanged”. Also, the geometric center in assay [1] is 6.3±0.8. For the same molecule, the intestinal transit entry in assay [2] was “improve”.
